According to US20240401044A1, “EXPLOITING IL33 SECRETION AS A THERAPEUTIC TARGET IN CANCER” (ROSWELL PARK CANCER INSTITUTE CORPORATION HEALTH RESEARCH, …, priority 2021, published 2024):

Legend:
[1] = test system: IL33 expression; test: Western blot of IL33 expression in PDAC cell lines treated with MEK and PI3K/AKT inhibitors; assay type: cell-based, mouse; conditions: cell lines derived from KPC tumor model of PDAC; inhibitor treatment for 24 hrs
Procedure: Results are shown as mean ±SEM. P values were calculated using Student t test. Chi-square test and spearman's correlation analysis was done for human PDAC TMA for statistical significance.
The above in silico findings were further validated by western blot analysis showing a complete loss of IL33 expression upon abolishing Kras* signaling (FIG. 3F-G, FIG. 4A-B). We further validated this finding using cell lines derived from KPC tumor model of PDAC (FIG. 1A).
Primary mouse cell lines were established in the laboratory (PJ-B6-4291, PJ-B6-4298) or gift from Dr. Ronald DePinho (AK-B6, AK14838, AK192, HY19636, HY15559) as described previously and were routinely cultured in RPMI 1640 (Invitrogen) 10% FBS (Invitrogen), 100 U/ml penicillin and 100 U/ml streptomycin. For inducible Kras derived cell lines, 1 μg/ml of doxycycline was directly added to the media. The cell lines were mycoplasma free, based on tests done monthly in the laboratory using Lonza's MycoAlert Mycoplasma Detection Kit assays with confirmatory tests by PCR-based assays.
Medium was removed and the cells were washed twice in ice-cold phosphate-buffered saline (PBS), scraped and collected as pellets after centrifugation at 1700 g for 5 min. The pelleted cells were incubated in radio immune precipitation assay (RIPA) buffer with proteinase and phosphatase inhibitors for 15 min. Lysates were then collected and centrifuged at 12000 rpm for 15 min at 4° C. Protein concentrations were measured using the DC Protein Assay Kit (Biorad, Cat. No. 5000111). SDS-PAGE and immunoblotting were performed as described previously in pre-cast bis-Tris 4-20% gradient gels (Invitrogen). The following antibodies were used: IL33 (R & D system AF3626); pAKT-S473 (CST 9271); pERK-p44/42 (CST 4370) and […] (Sigma-Aldrich, A2228).

[2] = test system: IL33; test: IHC and IF of IL33 in fungal-depleted PDAC tumors; assay type: in vivo, mouse; conditions: fungal-depleted tumors after amphotericin B course (FIG. 9H)
Procedure: To further test the role of fungi in IL33 secretion and recruitment of ILC2 and TH2 cells in the PDAC TME, we evaluated the effect of Alternaria and Malassezia administered by gavage to PDAC tumor-bearing mice (FIG. 9G). First, fungi resident in the mice were depleted by a course of amphotericin B (i.e., 5 doses of amphotericin B, 200 μg/day by oral gavage), followed by a maintenance dose of 0.5 μg/ml in the drinking water for […]. Following depletion of fungi, we administered either Malassezia globosa or Alternaria alternata (10^8 fungal spores per mouse) by oral gavage into the tumor-bearing mice. At 28 days post-fungal treatment, the tumors were harvested for analyses. […] Intratumoral fungal depletion and repopulation were confirmed by fungal FISH analysis (FIG. 9H). Further, 18S rRNA sequencing confirmed increased presence of Alternaria and Malassezia sp. in the tumor and stool of the mouse receiving fungal transplantation (FIG. 9I, FIG. 10D-F). […] Similarly, Malassezia globosa or Alternaria alternata administration augmented the infiltration of ILC2 (FIG. 9K) and TH2 (FIG. 10G) cell populations within the TME. […]
Harvested tissues were immediately fixed in 10% formalin overnight and embedded in paraffin. […] Immunofluorescence slides were imaged with an Leica confocal Microscope and quantified with ImageJ. […]

[3] = test system: ILC2 and TH2 cells in PDAC tumors; test: Flow cytometry of tumor infiltrating type 2 immune cells after antifungal treatment; assay type: in vivo, C57BL/6 mice; conditions: oral amphotericin B
Procedure: (§1) Followed by 3 weeks of amphotericin (0.5ug/ml) treatment in drinking water. After 3 weeks, PDAC cells were orthotopically transplanted and tumor progression studies were performed after 28-35 days. […] Red circles define the tumor boundaries. […] Followed by 3 weeks of amphotericin (0.5ug/ml) treatment in drinking water. After 3 weeks fungus (Alternaria alternata and Malassazia globose, 10^8 CFU/ml) was transplanted in mice. After 7 days of fungus transplantation, PDAC cells were orthotopically transplanted and tumor progression studies were performed after 28-35 days. […] Also, shown are the 18S rRNA sequencing in stool samples. Positive control-Alternaria is a sample of pure Alternaria culture. […] Scale bar 100 μm, unless indicated otherwise. Data are combined from three independent experiments and are presented as mean ±SEM, P values were calculated using Student t-test. ns, no significance.
For gastrointestinal fungal depletion, C57BL/6 mice were treated with 200 μg amphotericin B per day by oral gavage for five consecutive days, followed by 0.5 μg/ml amphotericin B treatment in drinking water for 21 days. Control groups were gavaged with 200 μl PBS for 5 consecutive days. After completion of antifungal treatment, species specific fungal repopulation was done with Alternaria alternata (ATCC 36376) and Malassezia globosa (MYA-4889). Fungi were administered (1×10^8 CFU/ml) by oral gavage. […]

[4] = test system: orthotopically transplanted PDAC tumors; test: Antifungal (fungal depletion) treatment of mice with orthotopically transplanted PDAC tumors: tumor burden and survival; assay type: in vivo, C57BL/6 mice
Procedure: as §1
For all experiments, C57BL/6J (Stock 000664) mice, aged 4-6 weeks were obtained from Jackson Laboratory unless otherwise mentioned. For orthotopic pancreas transplantation, mice were anaesthetized using isoflurane. A 2×2-mm portion of the left abdomen was shaved to facilitate transplantation. An incision was made in the left abdomen and the pancreas was gently exposed along with the spleen. Luciferase-expressing cells were slowly injected into the tail of the pancreas using a Hamilton syringe. Twenty microliters of cells (5×10^5) mixed with 20 μl Matrigel were injected. […]
Live in vivo imaging was performed at the Animal Imaging Facility at Roswell Park Comprehensive Cancer Center. […] Temperature and respiration were regulated using an MR-compatible small animal monitoring system (Model 1250, SAII, Stony Brook, NY.) Following scout scans, tumor burden was determined using multislice, fast spin echo scans in the axial and coronal planes. […] Tumor volumes were calculated by manual segmentation and voxel summation using commercially available, medical image processing software (Analyze 10.0, AnalyzeDirect, Overland Park, KS). […]

`CCn1c(-c2nonc2N)nc2c(C#CC(C)(C)O)ncc(OCC3CCCNC3)c21` (stereo not drawn) [GSK-690696] was tested. Which “IL33 expression (western blot)” value [1] did it give?
The value was “did not lead to a reduction in IL33 expression”.

Which results are given for `C[C@@H]1[C@H](O)[C@@H](C)/C=C/C=C/C=C/C=C/C=C/C=C/C=C/[C@H](O[C@@H]2O[C@H](C)[C@@H](O)[C@H](N)[C@@H]2O)C[C@@H]2O[C@](O)(C[C@@H](O)C[C@@H](O)[C@H](O)CC[C@@H](O)C[C@@H](O)CC(=O)O[C@H]1C)C[C@H](O)[C@H]2C(=O)O` [amphotericin B]?
IL33 localisation in PDAC tumors (IHC and IF) [2]: IL33 signal restricted predominantly to the nucleus of cancer cells; tumor infiltrating ILC2 ([3]; relative to total CD45 positive cells (FIG. 9E)): reduced tumor infiltrating ILC2; tumor infiltrating TH2 cells ([3]; relative to total CD45 positive cells (FIG. 9F)): reduced; tumor burden (wet weight of PDAC tumors) ([4]; fungal depletion/repopulation experiment, 5 doses 200 μg/day by oral gavage, then 0.5 μg/ml in drinking water (FIG. 9J)): significantly decreased tumor burden; tumor burden ([4]; oral amphotericin B, orthotopic PDAC tumor-bearing mice (FIG. 9B-C, 10A)): decreased tumor burden; survival ([4]; oral amphotericin B, orthotopic PDAC tumor-bearing mice (FIG. 9D)): increased survival

How did the “IL33 expression (western blot)” value [1] turn out when `Nc1cc(C(F)(F)F)c(-c2cc(N3CCOCC3)nc(N3CCOCC3)n2)cn1` [Buparlisib] was run?
The value was “did not lead to a reduction in IL33 expression”.

With `O=C(NOCC1CC1)c1ccc(F)c(F)c1Nc1ccc(I)cc1Cl` [CI-1040] as the compound, how does the “IL33 expression (western blot)” value [1] read?
Its value is “complete inhibition of IL33 expression”.
